Results on 34 compounds are retold here after patent US12459921B2, “Isoindoline compound, preparation method, pharmaceutical composition and use thereof” (SHANGHAI INSTITUTE OF MATERIA MEDICA, CHINESE ACADEMY OF …, priority 2018, dated 2025).

Where only a bound is given, the exact number is not on record here.

This test deals with MM.1S cells. Nature of the test: Inhibitory effect on the proliferation of MM.1S, MTS cell viability test. Particulars: Homo sapiens, MM1.S, 168 h, multiple myeloma MM.1S cells, 7 days incubation, read-out: Tumor cell inhibitory activity. The format is cell-based. A digest of the protocol:
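MM.1S cells (20,000/well, RPMI 1640 with 10% FBS) exposed to 5-fold compound dilutions at 0.2% DMSO for 7 days at 37° C, 5% CO2. MTS added for 3-4 h; OD490-OD690 gave inhibition versus DMSO, IC50 fitted, mean of three experiments.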
Turning to `N#CC1(c2cccc(Cl)c2)CCN(C(=O)CCCCOc2cccc3c2CN(C2CCC(=O)NC2=O)C3=O)CC1` (stereo not shown) [Example 87, 4-(3-chlorophenyl)-1-(5-((2-(2,6-dioxopiperidine-3-)-1-oxoisoindoline-4-)oxy)valeryl)piperidine-4-carbonitrile], the IC50 was under 100 nM. `N#CC1(c2ccccc2OC(F)(F)F)CCN(C(=O)CCCOc2cccc3c2CN(C2CCC(=O)NC2=O)C3=O)CC1` (stereo not shown) [Example 90, 1-(4-((2-(2,6-dioxopiperidine-3-)-1-oxoisoindoline-4-)-oxy-)butyryl)-4-(2-trifluoromethoxyphenyl)piperidine-4-carbonitrile]: the IC50 was in the range of 1000 to 20000 nM. For `N#CC1(c2ccccc2Cl)CCN(CCCCc2cccc3c2CN(C2CCC(=O)NC2=O)C3=O)CC1` (stereo not shown) [Example 91, 4-(2-chlorophenyl)-1-(4-(2-(2,6-dioxopiperidine-3-)-1-oxoisoindoline-4-)butyl)piperidine-4-carbonitrile] the value was under 100 nM; for `N#CC1(c2ccccc2Cl)CCN(CCCCCc2cccc3c2CN(C2CCC(=O)NC2=O)C3=O)CC1` (stereo not shown) [Example 92, 4-(2-chlorophenyl)-1-(5-(2-(2,6-oxopiperidine-3-)-1-oxoisoindoline-4-)pentyl)piperidine-4-carbonitrile], under 100 nM. For `N#CC1(c2cccc(Cl)c2)CCN(CCCCc2cccc3c2CN(C2CCC(=O)NC2=O)C3=O)CC1` (stereo not shown) [Example 93, 4-(3-chlorophenyl)-1-(4-(2-(2,6-dioxopiperidine-3-)-1-oxoisoindoline-4-)butyl)piperidine-4-carbonitrile] the value was under 100 nM; for `N#CC1(c2cccc(OC(F)(F)F)c2)CCN(CCCCCc2cccc3c2CN(C2CCC(=O)NC2=O)C3=O)CC1` (stereo not shown) [Example 94, 1-(5-(2-(2,6-dioxopiperidine-3-)-1-oxoisoindoline-4-)pentyl)-4-(3-trifluoromethoxyphenyl) piperidine-4-carbonitrile], under 100 nM; for `N#CC1(c2ccc(Cl)cc2)CCN(CCCCc2cccc3c2CN(C2CCC(=O)NC2=O)C3=O)CC1` (stereo not shown) [Example 95, 4-(4-chlorophenyl)-1-(4-(2-(2,6-dioxopiperidine-3-)-1-oxoisoindoline-4-)butyl)piperidine-4-carbonitrile], under 100 nM. The value for `N#CC1(c2ccc(OC(F)(F)F)cc2)CCN(CCCCCc2cccc3c2CN(C2CCC(=O)NC2=O)C3=O)CC1` (stereo not shown) [Example 96, 1-(5-(2-(2,6-dioxopiperidine-3-)-1-oxoisoindoline-4-)pentyl)-4-(4-trifluoromethoxyphenyl)piperidine-4-carbonitrile] was under 100 nM; that for `N#CC1(c2cccc(OC(F)(F)F)c2)CCN(CCCCc2cccc3c2CN(C2CCC(=O)NC2=O)C3=O)CC1` (stereo not shown) [Example 97, 1-(4-(2-(2,6-dioxopiperidine-3-)-1-oxoisoindoline-4-)butyl)-4-(3-trifluoromethoxyphenyl) piperidine-4-carbonitrile] was under 100 nM; that for `N#CC1(c2ccccc2Cl)CCN(CCCCCCc2cccc3c2CN(C2CCC(=O)NC2=O)C3=O)CC1` (stereo not shown) [Example 98, 4-(2-chlorophenyl)-1-(6-(2-(2,6-dioxopiperidine-3-)-1-oxoisoindoline-4-)hexyl)piperidine-4-carbonitrile] was under 100 nM. `N#CC1(c2ccc(OC(F)(F)F)cc2)CCN(CCCCc2cccc3c2CN(C2CCC(=O)NC2=O)C3=O)CC1` (stereo not shown) [Example 99, 1-(4-(2-(2,6-dioxopiperidine-3-)-1-oxoisoindoline-4-)butyl)-4-(4-trifluoromethoxyphenyl)piperidine-4-carbonitrile]: the IC50 is under 100 nM.

As for `N#CC1(c2cccc(Cl)c2)CCN(CCCCCCc2cccc3c2CN(C2CCC(=O)NC2=O)C3=O)CC1` (stereo not shown) [Example 100, 4-(3-chlorophenyl)-1-(6-(2-(2,6-dioxopiperidine-3-)-1-oxoisoindoline-4-)hexyl)piperidine-4-carbonitrile], the IC50 was under 100 nM. For `N#CC1(c2ccc(Cl)cc2Cl)CCN(CCCCc2cccc3c2CN(C2CCC(=O)NC2=O)C3=O)CC1` (stereo not shown) [Example 101, 4-(2,4-chlorophenyl)-1-(4-(2-(2,6-dioxopiperidine-3-)-1-oxoisoindoline-4-)butyl)piperidine-4-carbonitrile] the value was under 100 nM; for `N#CC1(c2ccc(Cl)cc2)CCN(CCCCCCc2cccc3c2CN(C2CCC(=O)NC2=O)C3=O)CC1` (stereo not shown) [Example 102, 4-(4-chlorophenyl)-1-(6-(2-(2,6-dioxopiperidine-3-)-1-oxoisoindoline-4-)hexyl)piperidine-4-carbonitrile], under 100 nM. For the compound `O=C1CCC(N2Cc3c(CCCCCN4CCCc5ccccc54)cccc3C2=O)C(=O)N1` (stereo not shown) [Example 103, 3-(4-(5-(3,4-dihydroquinoline-1(2H))pentyl)-1-oxoisoindoline-2-)piperidine-2,6-dione], the IC50 fell in the range of 100 to 1000 nM.

Regarding `CC1CCc2cc(F)ccc2N1CCCCCc1cccc2c1CN(C1CCC(=O)NC1=O)C2=O` (stereo not shown) [Example 104, 3-(4-(5-(6-fluoro-2-methyl-3,4-dihydroquinoline-1(2H))pentyl)-1-oxoisoindoline-2-) piperidine-2,6-dione], the IC50 lay in the range of 100 to 1000 nM. For `O=C1CCC(N2Cc3c(CCCCCN4CCOc5ccccc54)cccc3C2=O)C(=O)N1` (stereo not shown) [Example 105, 3-(4-(5-(2,3-dihydro-4H-benzo[b][1,4]oxazine-4-)pentyl)-1-oxoisoindoline-2-)piperidine-2,6-dione] the value was 100 to 1000 nM; for `O=C1CCC(N2Cc3c(CCCCCN4CCCc5cc(Br)ccc54)cccc3C2=O)C(=O)N1` (stereo not shown) [Example 106, 3-(4-(5-(6-bromo-3,4-dihydroquinoline-1(2H))pentyl)-1-oxoisoindoline-2-)piperidine-2,6-dione], 100 to 1000 nM; for `Cc1cc(OCCCCOc2cccc3c2C(=O)N(C2CCC(=O)NC2=O)C3=O)c2ccccc2n1` (stereo not shown) [Example 108, 2-(2,6-dioxopiperidine-3-)-4-(4-((2-methylquinoline-4-)oxy)butoxy)isoindoline-1,3-dione], 1000 to 20000 nM. For `O=C1CCC(N2Cc3c(CCCCCN4CCCc5ccc(Cl)cc54)cccc3C2=O)C(=O)N1` (stereo not shown) [Example 109, 3-(4-(5-(7-chloro-3,4-dihydroquinoline-1(2H))pentyl)-1-oxoisoindoline-2-)piperidine-2,6-dione] the value was 1000 to 20000 nM; for `O=C1CCC(N2Cc3c(CCCCCN4CCOc5cc(Br)ccc54)cccc3C2=O)C(=O)N1` (stereo not shown) [Example 110, 3-(4-(5-(7-bromo-2,3-dihydro-4H-benzo[b][1,4]oxazine-4-)pentyl)-1-oxoisoindoline-2-)piperidine-2,6-dione], under 100 nM.

Take `O=C1CCC(N2Cc3c(CCCCCN4CCCCc5ccccc54)cccc3C2=O)C(=O)N1` (stereo not shown) [Example 111, 3-(1-oxo-4-(5-(2,3,4,5-tetrahydro-TH-benzo[b]azepine-1-)pentyl)isoindoline-2-)piperidine-2,6-dione]: the IC50 was 100 to 1000 nM. The value for `O=C1CCC(N2Cc3c(CCCCCN4CCc5cc(Br)ccc54)cccc3C2=O)C(=O)N1` (stereo not shown) [Example 112] was under 100 nM. For `O=C1CCC(N2Cc3c(CCCCCN4CCc5ccccc5C4)cccc3C2=O)C(=O)N1` (stereo not shown) [Example 113, 3-(4-(5-(3,4-dihydroisoquinoline-2(1H)-)pentyl)-1-oxoisoindoline-2-)piperidine-2,6-dione] the value was 100 to 1000 nM; for `O=C1CCC(N2Cc3c(CCCCCN4CCCc5cc(Cl)ccc54)cccc3C2=O)C(=O)N1` (stereo not shown) [Example 115], 100 to 1000 nM; for `O=C1CCC(N2Cc3c(OCCCC(=O)N4CCc5ccccc54)cccc3C2=O)C(=O)N1` (stereo not shown) [Example 116, 3-(4-(4-(indoline-1-)-4-oxobutoxy)-1-oxoisoindoline-2-)piperidine-2,6-dione], under 100 nM. The value for `O=C1CCC(N2Cc3c(OCCCC(=O)N4CCCc5ccccc54)cccc3C2=O)C(=O)N1` (stereo not shown) [Example 117, 3-(4-(4-(3,4-dihydroquinoline-1(2H)-)-4-oxobutoxy)-1-oxoisoindoline-2-)piperidine-2,6-dione] was 100 to 1000 nM. Take `O=C1CCC(N2Cc3c(OCCCCC(=O)N4CCc5ccccc54)cccc3C2=O)C(=O)N1` (stereo not shown) [Example 118, 3-(4-((5-(indoline-1-)-5-oxopentyl)oxy)-1-oxoisoindoline-2-)piperidine-2,6-dione]: the IC50 was under 100 nM. For `O=C1CCC(N2Cc3c(OCCCCC(=O)N4CCCc5ccccc54)cccc3C2=O)C(=O)N1` (stereo not shown) [Example 119, 3-(4-((5-(3,4-dihydroquinoline-1(2H)-)-5-oxopentyl)oxy)-1-oxoisoindoline-2-)piperidine-2,6-dione] the value was under 100 nM; for `O=C1CCC(N2Cc3c(CCCCCCN4CCC5(CC4)OCc4ccc(Cl)cc45)cccc3C2=O)C(=O)N1` (stereo not shown) [Example 120, 3-(4-(6-(6-chloro-3H-spiro[isobenzofuran-1,4′-piperidine]-1′-)hexyl)-1-oxoisoindoline-2-)piperidine-2,6-dione], under 100 nM; for `O=C1CCC(N2Cc3c(CCCCCN4CCC5(CC4)C(=O)Nc4ccccc45)cccc3C2=O)C(=O)N1` (stereo not shown) [Example 121, 3-(1-oxo-4-(5-(2-oxospiro[indoline-3,4′-piperidine]-1′-)pentyl)indoline-2-)piperidine-2,6-dione], under 100 nM. Turning to `O=C1CCC(N2Cc3c(CCCCCN4CCC5(CC4)OCc4ccccc45)cccc3C2=O)C(=O)N1` (stereo not shown) [Example 123, 3-(4-(5-(3H-spiro[isobenzofuran-1,4′-piperidine]-1′-)pentyl)-1-oxoisoindoline-2-)piperidine-2,6-dione], the IC50 was under 100 nM. For `O=C1CCC(N2Cc3c(OCCCCN4CCC5(CC4)OCc4ccc(Cl)cc45)cccc3C2=O)C(=O)N1` (stereo not shown) [Example 124, 3-(4-(4-(6-chloro-3H-spiro[isobenzofuran-1,4′-piperidine]-1′-)butoxy)-1-oxoisoindoline-2-)piperidine-2,6-dione] the value was under 100 nM; for `O=C1CCC(N2Cc3c(CCCCCN4CCC5(CC4)OC(=O)Nc4ccccc45)cccc3C2=O)C(=O)N1` (stereo not shown) [Example 125, 3-(1-oxo-4-(5-(2-oxo-1,2-dihydrospiro[benzo[d][1,3]oxazine-4,4′-piperidine]-1′-)pentyl)isoindoline-2-)piperidine-2,6-dione], 100 to 1000 nM.
